Measurements published in patent US20230364130A1, “INHALED ARGON FOR TREATING A PATIENT SUFFERING FROM CARDIOVASCULAR DISEASE” (L'Air Liquide, Sociëtë Anonyme Pour l'Etude et …, priority 2020, published 2023).

Tests used:
[1] = test system: rabbits; assay: model of multiple organ failure by clamping the supraceliac aorta (30 min) then reperfusion; hemodynamics and acid-base parameters; assay type: in vivo, rabbit (male, New Zealand breed)
Description: (§1) More specifically, the model used is a lagomorphic model of multiple organ failure by clamping the supraceliac aorta.
The rabbits were sedated by intravenous injection (Zoletil® 15 mg/kg), then intubated to be ventilated. Anesthesia is completed by intravenous administration of thiopental (10 mg/kg) and methadone hydrochloride (Comfortan® 0.6 mg/kg); and maintained as needed with thiopental boluses.
(§2) After a period of hemodynamic stabilization, the supraceliac aorta is clamped with an atraumatic clamp for 30 minutes. In order to avoid any thrombus formation at the level of the clamping, a bolus of unfractionated heparin (250 IU/kg) is administered to the rabbit in question, 5 minutes before clamping.
The effectiveness of the clamping is verified by the absence of an aortic pulse downstream of the clamping. Similarly, the absence of thrombus is assessed by the presence of an aortic pulse after unclamping.
(§3) The rabbits are separated into 2 groups: • a Control Group (CG) inhaling an N2/O2 binary gas mixture containing 30% of oxygen and the rest as nitrogen (vol %); • an Argon Group (AG) according to the invention inhaling an Ar/O2 binary gas mixture containing 30% of oxygen and the rest as argon (vol %), i.e. 70 vol % of argon.
The cardiac output is measured by a cardiac output valve before, during and after ischemia (Isch.) of the aorta.

[2] = test system: rabbits; assay: histology score of organs after supraceliac aortic clamping and reperfusion; assay type: in vivo, rabbit (male, New Zealand breed)
Description: as §1, §2, §3
FIG. 3 represents the histology score of several organs: heart, liver, lungs, kidneys and jejunum (i.e. intestines).

[3] = test system: rabbits; assay: additional preliminary study: suprarenal then supraceliac aortic clamping, calculated pulmonary vascular resistance; assay type: in vivo, rabbit; settings: argon 70 vol % / oxygen 30 vol %, during suprarenal then supraceliac aortic clamping
Description: A first clamping of the aorta of these rabbits was performed above the renal artery, followed by clamping at the supraceliac level. The objective is to see the effect of argon during a gradual modification of systemic resistance.

[4] = after 300 minutes of reperfusion

## [Ar] [argon]
[1]; acid-base biochemical parameters
  pH, HCO3- and lactate parameters vs Control Group: significantly preserved within normal values
[1]; after 15 minutes of reperfusion
  norepinephrine dose required to maintain a stable arterial pressure: 1.4 ± 0.6 µg/kg/min
[1]; after 30 minutes of gas inhalation, before clamping
  cardiac output: 99 ± 10 mL/min/kg
[1]; [4]
  cardiac output: 60 ± 4 mL/min/kg
  pH: 7.16
[1]; after unclamping, up to 240 minutes of reperfusion
  cardiac output vs Control Group: no significant difference between the groups
[1]; at the end of the 300-minute monitoring
  norepinephrine dose required to maintain a stable arterial pressure: 3.3 ± 1.6 µg/kg/min
[1]; at the start of the experiment, inhaled Ar/O2 70/30 vol %
  cardiac output: 108 ± 7 mL/min/kg
[1]; during the ischemia phase following clamping
  mean arterial pressure: 130±7 mmHg
[1]; during the reperfusion phase, after unclamping
  mean arterial pressure vs Control Group: no significant difference between the groups
[1]; immediately after beginning of surgery, upon clamping
  attenuated decrease of cardiac output vs Control Group: approximately 20%
[1]; throughout reperfusion
  norepinephrine doses to maintain mean arterial pressure vs Control Group: significantly lower
[1]; throughout the protocol
  heart rate vs Control Group: no significant difference between the groups
[2]; jejunum, histology
  jejunal lesions vs Control Group: no difference
[2]; kidneys, histology
  tubular necrosis lesions vs Control Group: significantly greater in the Control Group than in the Argon Group
[2]; liver
  histology score, centrilobular clarification vs Control Group: significantly lower
[2]; lungs, histology
  congestive and edematous lesions of the lung parenchyma vs Control Group: the difference was not significant
[2]; myocardium, histology
  subendocardial necrosis lesions vs Control Group: no significant difference
[3]
  pulmonary vascular resistance vs animals exposed to oxygen-enriched air: immediately reduced
